Measurements published in PMC10154249, “Unique progerin C-terminal peptide ameliorates Hutchinson–Gilford progeria syndrome phenotype by rescuing BUBR1” (Nature Aging, 2023).

Tests used:
HGADFN167 cells = test: SA-β-gal staining of HGADFN167 cells; type: cell-based, human
Procedure: (§1) SA-β-gal staining was performed as previously described. Cells were fixed in 0.5% glutaraldehyde for 15 min at room temperature, washed three times with PBS (pH 6.0) containing 1 mM MgCl2 and exposed overnight 37 °C to containing 1 mg ml^–1 5-bromo-4-chloro-3-indolyl-β-D-galactopyranoside (MCE, catalog no. HY-15934), 0.12 mM potassium ferrocyanide (Sigma, catalog no. P3289), 0.12 mM potassium ferricyanide (Sigma, catalog no. P8131) and 1 mM MgCl2 PBS buffer (pH 6.0). Cells were washed three times with H2O and observed under a microscope (OLYMPUS CKX53). SA-β-gal positive cells were quantified by investigators who were blinded to the identity of the analyzed cell.

IMR90 cells = test: Cell survival rate analysis in IMR90 cells; type: cell-based, human; conditions: Fig. 5o, 48h
Procedure: Cell viability was assessed using the Cell Counting Kit-8 (CCK8) (APE, catalog no. k1018). The cells were plated in triplicate in 96-well plates (typically 10,000 cells per 100 μl per well) and were incubated with fresh medium for 24 h. Then, the cells were incubated with different concentrations (0 μM, 10 μM, 20 μM, 30 μM) of UPCP for 0 h, 24 h, 48 h or 72 h. CCK8 solution (10 μl) was added to the well for a 2 h incubation at 37 °C. Absorbance was measured at 450 nm with a 96-well plate reader (Tecan Infinite M NANO^+). Data were analyzed and further processed in i-control v.2.0 and GraphPad Prism v.7.

IMR90-progerin cells = test: 53BP1 foci in IMR90-progerin cells; type: cell-based, human; conditions: IMR90-Flag-progerin+UPCP
Procedure: (§2) Immunofluorescence was performed as described previously. Cells were plated on cover slips in 12-well plates, left overnight before the treatment. Cells were fixed in 1% formaldehyde in culture medium for 10 min at 37 °C and permeabilized with 0.2% Triton X-100 in PBS for 10 min at room temperature. Cells were washed twice in PBS and blocked for 1 h with 5% BSA in PBS and then incubated with primary antibodies at 4 °C overnight, washed three times in PBS and incubated with secondary antibodies for 1 h at room temperature. Cell nuclei were counterstained with a 500 nM concentration of 4,6-diamidino-2-phenylindole (DAPI) (Sigma). Images were acquired by a fluorescence microscope (OLYMPUS FV-1000, Carl Zeiss LSM880 or Leica DMi8) and analyzed with software NIS-Elements AR v.5.0.1 (Nikon), FLUOVIEW v.4.2b (OLYMPUS), ZEN v.2.3 SP1 (Carl Zeiss) and Leica Application Suite X v.3.6.0.24 (Leica). Cells were quantified by investigators who were blinded to the identity of the analyzed cell.

HGADFN003 cells [1] = test: Ki67 immunofluorescence of HGADFN003 cells; type: cell-based, human; conditions: for Relative percentage of Ki67 positive cells: Fig. 5b, Mock 32, 39, 45, P=0.0148; for Ki67 positive cells: HGADFN003, Extended Data Fig. 10e
Procedure: as §2

HGADFN003 cells [2] = test: Effect of UPCP on HGADFN003 senescence after BUBR1 depletion (shBUBR1#3): SA-β-gal, Ki67, aneuploid cells; type: cell-based, human; conditions: for Relative percentage of SA-β-gal positive cells: Fig. 5g; for Relative percentage of SA-β-gal positive cells / Relative percentage of Ki67 positive cells / Relative percentage of aneuploid cells: HGADFN003; for Relative percentage of Ki67 positive cells: Fig. 5i; for Relative percentage of aneuploid cells: Fig. 5j
Procedure: as §2, §1
For the metaphase chromosome spread assay, 1.5 × 10^6 cells were seeded in a 6 cm dish and incubated for 24 h with fresh medium. Then, colchicine was added to a final concentration of 0.2 μg ml^–1 and the cells were incubated at 37 °C for 2 h. After digestion, we collected and rinsed the cells with PBS. The cells were centrifuged at 160g for 10 min. Then, 1 M KCl was added to a final concentration of 0.075 mol l^–1 and the samples were incubated at 37 °C for 20 min. The cells were centrifuged, and the supernatant aspirated. The pellet was resuspended, and 1 ml methanol:glacial acetic acid (3:1) solution was added. The sample was rested at room temperature for 10 min. Then, the cells were centrifuged at 160g for 10 min. The supernatant was aspirated, and the pellet resuspended in 1 ml fixative for 30 min. The cells were centrifuged and the pellet was suspended in 1 ml fixative again for 30 min. The cells were centrifuged at 160g for 10 min and the supernatant aspirated. The pellet was then resuspended in a small volume of fixative (typically less than 500 μl) until the cell suspension appeared lightly milky. A small quantity of the cell suspension was held vertically in a pipette with the end about 10 cm above the slide. A single drop was released from this height onto the slide and allowed to air dry. The cells were then incubated with 500 nM of DAPI (Invitrogen) for 10 min. Slides were examined with an Olympus BX53 fluorescence microscope and the images were captured by using the Olympus IPP v.7.0 software. Aneuploid cells were quantified by investigators who were blinded to the identity of the analyzed cell.

[3] = system: BUBR1 kinetochore localization in H1299 cells; test: Immunofluorescence, abnormal localization of BUBR1 in H1299 cells; type: cell-based; conditions: for Relative percentage of the number of abnormal localization cells of BUBR1: Fig. 3h, H1299, progerin+UPCP, P=0.0202 vs progerin
Procedure: as §2

Substance: H-YGRKKRRQRRRYNLRSRTVLCGTCGQPADKASASGSGAQSPQNCSIM-OH (cysteines drawn unpaired) [UPCP, unique progerin C-terminal peptide]
- SA-β-gal positive cells (HGADFN167 cells; HGADFN167, replicate 1): 24%
- SA-β-gal positive cells (HGADFN167 cells; HGADFN167, replicate 2): 26%
- SA-β-gal positive cells (HGADFN167 cells; HGADFN167, replicate 3): 20%
- Cell survival rate analysis (UPCP-OD/Mock-OD) (IMR90 cells; 10μM, UPCP-0μM = 1, P=0.1549, replicate 1): 0.9983
- Cell survival rate analysis (UPCP-OD/Mock-OD) (IMR90 cells; 10μM, UPCP-0μM = 1, P=0.1549, replicate 2): 1.052
- Cell survival rate analysis (UPCP-OD/Mock-OD) (IMR90 cells; 10μM, UPCP-0μM = 1, P=0.1549, replicate 3): 1.032
- Cell survival rate analysis (UPCP-OD/Mock-OD) (IMR90 cells; 20μM, UPCP-0μM = 1, P=0.2306, replicate 1): 1.032
- Cell survival rate analysis (UPCP-OD/Mock-OD) (IMR90 cells; 20μM, UPCP-0μM = 1, P=0.2306, replicate 2): 1.043
- Cell survival rate analysis (UPCP-OD/Mock-OD) (IMR90 cells; 20μM, UPCP-0μM = 1, P=0.2306, replicate 3): 1.31
- Cell survival rate analysis (UPCP-OD/Mock-OD) (IMR90 cells; 30μM, UPCP-0μM = 1, P=0.4981, replicate 1): 0.9716
- Cell survival rate analysis (UPCP-OD/Mock-OD) (IMR90 cells; 30μM, UPCP-0μM = 1, P=0.4981, replicate 2): 1.072
- Cell survival rate analysis (UPCP-OD/Mock-OD) (IMR90 cells; 30μM, UPCP-0μM = 1, P=0.4981, replicate 3): 1.021
- 53BP1 foci per cell, n>10 (IMR90-progerin cells; replicate 1): 54%
- 53BP1 foci per cell, n≤10 (IMR90-progerin cells; replicate 1): 46%
- 53BP1 foci per cell, n>10 (IMR90-progerin cells; replicate 2): 43%
- 53BP1 foci per cell, n≤10 (IMR90-progerin cells; replicate 2): 57%
- 53BP1 foci per cell, n>10 (IMR90-progerin cells; replicate 3): 59%
- 53BP1 foci per cell, n≤10 (IMR90-progerin cells; replicate 3): 41%
- Relative percentage of Ki67 positive cells (HGADFN003 cells [1]; HGADFN003, replicate 1): 54%
- Relative percentage of Ki67 positive cells (HGADFN003 cells [1]; HGADFN003, replicate 2): 62%
- Relative percentage of Ki67 positive cells (HGADFN003 cells [1]; HGADFN003, replicate 3): 68%
- Ki67 expression (FTI-277/UPCP comparison, words) (HGADFN003 cells [1]; HGADFN003): increasing expression of BUBR1, CyclinA2 and Ki67
- Ki67 positive cells (HGADFN003 cells [1]; replicate 1): 65%
- Ki67 positive cells (HGADFN003 cells [1]; replicate 2): 55%
- Ki67 positive cells (HGADFN003 cells [1]; replicate 3): 72%
- Ki67 positive staining (HGADFN003 cells [1]; HGPS cells): increased Ki67 positive staining
- Relative percentage of SA-β-gal positive cells (HGADFN003 cells [2]; UPCP+shBUBR1#3, P=0.0068 vs Mock, 0.0058 vs UPCP, replicate 1): 38%
- Relative percentage of SA-β-gal positive cells (HGADFN003 cells [2]; UPCP+shBUBR1#3, P=0.0068 vs Mock, 0.0058 vs UPCP, replicate 2): 35%
- Relative percentage of SA-β-gal positive cells (HGADFN003 cells [2]; UPCP+shBUBR1#3, P=0.0068 vs Mock, 0.0058 vs UPCP, replicate 3): 41%
- Relative percentage of SA-β-gal positive cells (HGADFN003 cells [2]; UPCP, Mock 48, 52, 55, P=0.0005 vs Mock, replicate 1): 25%
- Relative percentage of SA-β-gal positive cells (HGADFN003 cells [2]; UPCP, Mock 48, 52, 55, P=0.0005 vs Mock, replicate 2): 28%
- Relative percentage of SA-β-gal positive cells (HGADFN003 cells [2]; UPCP, Mock 48, 52, 55, P=0.0005 vs Mock, replicate 3): 29%
- Relative percentage of Ki67 positive cells (HGADFN003 cells [2]; UPCP+shBUBR1#3, P=0.0314 vs Mock, 0.0222 vs UPCP, replicate 1): 52%
- Relative percentage of Ki67 positive cells (HGADFN003 cells [2]; UPCP+shBUBR1#3, P=0.0314 vs Mock, 0.0222 vs UPCP, replicate 2): 49%
- Relative percentage of Ki67 positive cells (HGADFN003 cells [2]; UPCP+shBUBR1#3, P=0.0314 vs Mock, 0.0222 vs UPCP, replicate 3): 43%
- Relative percentage of Ki67 positive cells (HGADFN003 cells [2]; UPCP, Mock 35, 41, 37, P=0.0029 vs Mock, replicate 1): 65%
- Relative percentage of Ki67 positive cells (HGADFN003 cells [2]; UPCP, Mock 35, 41, 37, P=0.0029 vs Mock, replicate 2): 58%
- Relative percentage of Ki67 positive cells (HGADFN003 cells [2]; UPCP, Mock 35, 41, 37, P=0.0029 vs Mock, replicate 3): 71%
- Relative percentage of aneuploid cells (HGADFN003 cells [2]; UPCP+shBUBR1#3, P=0.0641 vs Mock, 0.0036 vs UPCP, replicate 1): 25%
- Relative percentage of aneuploid cells (HGADFN003 cells [2]; UPCP+shBUBR1#3, P=0.0641 vs Mock, 0.0036 vs UPCP, replicate 2): 27%
- Relative percentage of aneuploid cells (HGADFN003 cells [2]; UPCP+shBUBR1#3, P=0.0641 vs Mock, 0.0036 vs UPCP, replicate 3): 24%
- Relative percentage of aneuploid cells (HGADFN003 cells [2]; UPCP, Mock 28, 36, 31, P=0.005 vs Mock, replicate 1): 19%
- Relative percentage of aneuploid cells (HGADFN003 cells [2]; UPCP, Mock 28, 36, 31, P=0.005 vs Mock, replicate 2): 16%
- Relative percentage of aneuploid cells (HGADFN003 cells [2]; UPCP, Mock 28, 36, 31, P=0.005 vs Mock, replicate 3): 18%
- senescence remission by UPCP after BUBR1 depletion (HGADFN003 cells [2]; HGADFN003, BUBR1 shRNA (shBUBR1#3)): depletion of BUBR1 significantly antagonized the senescence remission mediated by UPCP
- Relative percentage of the number of abnormal localization cells of BUBR1 ([3]; replicate 1): 25%
- Relative percentage of the number of abnormal localization cells of BUBR1 ([3]; replicate 2): 18%
- Relative percentage of the number of abnormal localization cells of BUBR1 ([3]; replicate 3): 27%
- BUBR1 localization to the kinetochore ([3]; H1299 cells, immunofluorescence): correctly localized BUBR1 to the kinetochore
